Calls of active or inactive are those of the source. The calls are words filed in the database; no cut-off is given here.
What was measured:
NCI-H460 [1] = assay: Antimigratory activity against human H460 cells assessed as inhibition of cell migration at 0.5 uM measured after 48 hrs by cell scratch assay; type: functional, cell-based
HeLa = assay: cells; type: functional, cell-based; details: Homo sapiens, 72 h
Description: Antiproliferative activity against human Hela cells assessed as inhibition of cell growth incubated for 72 hrs by CCK-8 assay

HCT-116 [2] = assay: cells; type: functional, cell-based; details: Homo sapiens, HCT-116, 72 h
Description: Antiproliferative activity against human HCT116 cells assessed as inhibition of cell growth incubated for 72 hrs by CCK-8 assay

HCT-116 [3] = assay: Induction of apoptosis in human HCT116 cells assessed as number of apoptotic cells at 2 uM incubated for 48 hrs by annexin V-FITC/PI based flow cytometric analysis relative to control; type: functional
[4] = target: Cyclin-dependent kinase 4/cyclin D1 (Homo sapiens, UniProt P11802); assay: Inhibition of recombinant human full length CDK4/cyclin D1 expressed in Sf9 cells incubated for 10 mins by ADP-Glo reagent assay
Sequence of Cyclin-dependent kinase 4/cyclin D1 (P11802 whole entry): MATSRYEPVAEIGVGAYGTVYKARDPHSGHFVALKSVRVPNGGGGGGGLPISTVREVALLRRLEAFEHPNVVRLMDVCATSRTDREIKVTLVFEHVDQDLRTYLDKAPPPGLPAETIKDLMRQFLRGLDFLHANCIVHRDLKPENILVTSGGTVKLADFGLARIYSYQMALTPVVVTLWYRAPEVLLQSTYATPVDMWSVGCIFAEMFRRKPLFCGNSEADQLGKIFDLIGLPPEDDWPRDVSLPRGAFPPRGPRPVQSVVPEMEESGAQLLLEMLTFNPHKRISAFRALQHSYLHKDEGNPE
Sequence of Cyclin-dependent kinase 4/cyclin D1 (P24385 whole entry, further chain): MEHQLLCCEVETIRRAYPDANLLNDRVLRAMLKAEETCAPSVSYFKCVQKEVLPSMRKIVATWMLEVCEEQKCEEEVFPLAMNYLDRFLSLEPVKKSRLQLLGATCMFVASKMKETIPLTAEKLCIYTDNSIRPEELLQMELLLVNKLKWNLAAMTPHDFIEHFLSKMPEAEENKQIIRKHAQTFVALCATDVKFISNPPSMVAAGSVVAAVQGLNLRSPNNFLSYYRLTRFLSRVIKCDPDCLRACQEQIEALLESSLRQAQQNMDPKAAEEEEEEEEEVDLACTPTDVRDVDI

SMMC-7721 = assay: cells; type: functional, cell-based; details: Homo sapiens, SMMC-7721, 72 h
Description: Antiproliferative activity against human SMMC7721 cells assessed as inhibition of cell growth incubated for 72 hrs by CCK-8 assay

A-375 [5] = assay: Induction of apoptosis in human A375 cells assessed as number of apoptotic cells at 2 uM incubated for 48 hrs by annexin V-FITC/PI based flow cytometric analysis relative to control; type: functional
HCT-116 [6] = assay: cells; type: functional; details: Homo sapiens, time 72 hrs, read-out: GI
[7] = target: Cyclin-dependent kinase 7/ cyclin H (Homo sapiens, UniProt P50613); assay: Inhibition of recombinant human full length CDK7/cyclin H1 expressed in Sf9 cells incubated for 10 mins by ADP-Glo reagent assay
Sequence of Cyclin-dependent kinase 7/ cyclin H (P51946 whole entry): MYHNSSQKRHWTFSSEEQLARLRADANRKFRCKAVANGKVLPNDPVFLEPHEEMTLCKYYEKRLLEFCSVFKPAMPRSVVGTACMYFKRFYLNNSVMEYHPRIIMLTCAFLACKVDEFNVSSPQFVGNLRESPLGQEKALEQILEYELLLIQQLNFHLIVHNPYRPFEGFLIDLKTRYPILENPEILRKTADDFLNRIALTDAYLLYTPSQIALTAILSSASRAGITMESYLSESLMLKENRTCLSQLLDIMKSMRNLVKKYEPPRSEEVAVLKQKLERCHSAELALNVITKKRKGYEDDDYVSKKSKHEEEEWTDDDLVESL
Sequence of Cyclin-dependent kinase 7/ cyclin H (P50613 whole entry): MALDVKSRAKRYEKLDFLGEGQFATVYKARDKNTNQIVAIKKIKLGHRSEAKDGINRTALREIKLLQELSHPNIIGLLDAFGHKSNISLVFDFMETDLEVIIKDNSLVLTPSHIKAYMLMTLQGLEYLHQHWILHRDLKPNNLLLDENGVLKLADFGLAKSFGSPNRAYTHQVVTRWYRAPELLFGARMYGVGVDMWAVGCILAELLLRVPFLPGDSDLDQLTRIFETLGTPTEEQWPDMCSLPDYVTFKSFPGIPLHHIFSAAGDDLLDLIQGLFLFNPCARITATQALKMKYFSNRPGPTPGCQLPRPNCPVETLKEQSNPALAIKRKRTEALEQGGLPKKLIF

NCI-H460 [8] = assay: cells; type: functional, cell-based; details: Homo sapiens, NCI-H460, 72 h
Description: Antiproliferative activity against human H460 cells assessed as inhibition of cell growth incubated for 72 hrs by CCK-8 assay

NCI-H460 [9] = assay: cells; type: functional; details: Homo sapiens, time 72 hrs, read-out: GI
[10] = Cytotoxicity against mouse NIH/3T3 cells incubated for 72 hrs by CCK-8 assay; type: cell-based; details: NIH3T3, 72 h
A-375 [11] = assay: Antimigratory activity against human A375 cells assessed as inhibition of cell migration at 0.25 uM measured after 48 hrs by cell scratch assay; type: functional, cell-based
HCT-116 [12] = assay: cells; type: functional; details: Homo sapiens, time 72 hrs, read-out: GI; remark: listed apart in the source
CDK6/cyclin D3 = CDK6/cyclin D3 (Homo sapiens, UniProt Q00534); assay: Inhibition of recombinant human full length CDK6/cyclin D3 incubated for 10 mins by ADP-Glo reagent assay; type: protein-complex assay
Sequence of CDK6/cyclin D3 (P30281 whole entry): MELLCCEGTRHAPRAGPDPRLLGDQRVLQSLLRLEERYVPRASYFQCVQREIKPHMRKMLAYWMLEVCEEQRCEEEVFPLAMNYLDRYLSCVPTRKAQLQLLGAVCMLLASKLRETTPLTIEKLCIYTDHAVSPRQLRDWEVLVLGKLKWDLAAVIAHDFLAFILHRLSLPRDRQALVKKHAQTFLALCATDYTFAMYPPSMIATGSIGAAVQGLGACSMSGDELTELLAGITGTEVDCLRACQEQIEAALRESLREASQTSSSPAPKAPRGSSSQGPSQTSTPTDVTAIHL
Sequence of CDK6/cyclin D3 (Q00534 whole entry): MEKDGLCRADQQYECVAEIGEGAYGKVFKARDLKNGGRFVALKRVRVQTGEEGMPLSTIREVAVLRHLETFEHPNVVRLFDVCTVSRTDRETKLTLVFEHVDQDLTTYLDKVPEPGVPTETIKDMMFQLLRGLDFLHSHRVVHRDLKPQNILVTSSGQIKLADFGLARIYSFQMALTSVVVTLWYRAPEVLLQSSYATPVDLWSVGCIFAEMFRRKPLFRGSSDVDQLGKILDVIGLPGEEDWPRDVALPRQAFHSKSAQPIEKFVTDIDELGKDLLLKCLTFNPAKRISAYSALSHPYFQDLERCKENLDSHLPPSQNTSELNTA

NCI-H460 [13] = assay: cells; type: functional; details: Homo sapiens, time 72 hrs, read-out: GI; remark: listed apart in the source
A-375 [14] = assay: cells; type: functional, cell-based; details: Homo sapiens, A-375, 72 h
Description: Antiproliferative activity against human A375 cells assessed as inhibition of cell growth incubated for 72 hrs by CCK-8 assay

In the case of `O=C(Nc1ccc(F)cc1)c1n[nH]cc1NC(=O)c1c(F)cccc1F`, the inhibition (NCI-H460 [1]) is reported as “Active”, the IC50 (HeLa) is reported as 8.23 µM and the IC50 (HCT-116 [2]) is reported as 1.96 µM. The Activity (HCT-116 [3]) was 48%, the IC50 [4] was greater than 1 µM and the IC50 (SMMC-7721) was 23.2 µM. For the same molecule, the Activity (A-375 [5]) was 66.71%, the inhibition of growth at 8 µM (HCT-116 [6]) was 74% and the IC50 [7] was greater than 1 µM. The IC50 (NCI-H460 [8]) was 9.46 µM, the inhibition of growth at 8 µM (NCI-H460 [9]) was 59.1% and the IC50 [10] was 7.85 µM. For the same molecule, the inhibition (A-375 [11]) was “Active”, the inhibition of growth at 2 µM (HCT-116 [12]) was 57.6% and the IC50 (CDK6/cyclin D3) was greater than 1 µM. It also gave an inhibition of growth at 2 µM (NCI-H460 [13]) of 21.3% and an IC50 (A-375 [14]) of 13.4 µM.

Reference: ChEMBL document CHEMBL4680185, “Discovery of novel cyclin-dependent kinase (CDK) and histone deacetylase (HDAC) dual inhibitors with potent in vitro and in vivo anticancer activity” (Eur J Med Chem, 2020)
